From the supplement of paper PMC7840683
± gives the standard deviation of the averaged measurements.

System: HepaRG
Experiment: LDH release cytotoxicity, % of total lysis control; higher = more cytotoxic
Conditions: 48 h
In short: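 On collagen I-coated 96-well plates, single-lot HepaRG cells were exposed for 48 h, in duplicate, to eight-point half-log series of test chemicals beginning at 100 µM. The exposure medium was serum-free induction medium with 0.5% DMSO, and total lysis wells got 0.1% Triton X. Resorufin fluorescence from the CytoTox-ONE reaction, read on a Tecan Safire, reported LDH in 50 µL of spent medium. Percent cytotoxicity came from normalization to on-plate vehicle and total lysis controls, averaged over the duplicates.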

Row | Structure (SMILES) | LDH release cytotoxicity (0.03162 µM) [%] | LDH release cytotoxicity (0.1 µM) [%] | LDH release cytotoxicity (0.3162278 µM) [%] | LDH release cytotoxicity (1 µM) [%] | LDH release cytotoxicity (3.16228 µM) [%] | LDH release cytotoxicity (10 µM) [%] | LDH release cytotoxicity (31.6228 µM) [%] | LDH release cytotoxicity (100 µM) [%] | LDH release cytotoxicity (0.031623 µM) [%] | LDH release cytotoxicity (0.316228 µM) [%] | LDH release cytotoxicity (0.031939 µM) [%] | LDH release cytotoxicity (0.101 µM) [%] | LDH release cytotoxicity (0.31939 µM) [%] | LDH release cytotoxicity (1.01 µM) [%] | LDH release cytotoxicity (3.1939004 µM) [%] | LDH release cytotoxicity (10.1 µM) [%] | LDH release cytotoxicity (31.939 µM) [%] | LDH release cytotoxicity (101 µM) [%]
1 | N#CN=C1SCCN1Cc1ccc(Cl)nc1 [Thiacloprid] | -2.96 ± 0.36 | -3.73 ± 0.31 | -3.467 ± 0.025 | -3.3 ± 0.68 | -3.46 ± 0.55 | -2.54 ± 0.15 | -2.87 ± 0.072 | -1.64 ± 1.2 | – | – | – | – | – | – | – | – | – | –
2 | CN1COCN(Cc2cnc(Cl)s2)C1=N[N+](=O)[O-] [Thiamethoxam] | -0.296 ± 0.14 | -1.13 ± 0.85 | -0.0609 ± 0.4 | -1.83 ± 0.5 | -1.49 ± 0.41 | 0.119 ± 1.6 | -1.01 ± 0.87 | 0.102 ± 1.4 | – | – | – | – | – | – | – | – | – | –
3 | COC(=O)c1c(C(F)F)nc(C(F)(F)F)c(C2=NCCS2)c1CC(C)C [Thiazopyr] | -0.958 ± 2.2 | -0.18 ± 0.21 | -0.693 ± 0.24 | -0.8 ± 0.35 | -0.567 ± 0.015 | -0.719 ± 0.32 | -0.722 ± 0.28 | -0.433 ± 0.5 | – | – | – | – | – | – | – | – | – | –
4 | O=C(Nc1ccccc1)Nc1cnns1 [Thidiazuron] | -1.24 ± 0.048 | -0.715 ± 0.86 | -0.562 ± 0.16 | -0.873 ± 0.82 | -1.15 ± 0.018 | -0.652 ± 1.3 | -0.0499 ± 1.6 | 17.6 ± 3.5 | – | – | – | – | – | – | – | – | – | –
5 | CCN(CC)C(=O)SCc1ccc(Cl)cc1 [Thiobencarb] | -1.69 ± 0.22 | -1.48 ± 0.59 | -1.6 ± 2.2 | -2.11 ± 1.5 | -1.17 ± 1 | -1.78 ± 1.8 | -1.01 ± 1.6 | 2.18 ± 1.2 | – | – | – | – | – | – | – | – | – | –
6 | CSC(C)=NOC(=O)N(C)SN(C)C(=O)ON=C(C)SC [Thiodicarb] | 0.264 ± 0.45 | 0.37 ± 0.55 | -0.268 ± 0.33 | 0.546 ± 0.75 | 0.811 ± 0.23 | 1.07 ± 0.71 | 1.06 ± 0.2 | 1.18 ± 0.48 | – | – | – | – | – | – | – | – | – | –
7 | COC(=O)NC(=S)Nc1ccccc1NC(=S)NC(=O)OC [Thiophanate-methyl] | -1.04 ± 0.2 | -0.552 ± 0.3 | -0.928 ± 0.03 | -1.83 ± 0.058 | -0.882 ± 0.41 | 0.238 ± 0.4 | 0.796 ± 0.9 | 8.47 ± 0.31 | – | – | – | – | – | – | – | – | – | –
8 | CN(C)C(=S)SSC(=S)N(C)C [Thiram] | -1.63 ± 0.73 | -2.1 ± 1.1 | -2.29 ± 0.55 | -1.46 ± 0.3 | -2.28 ± 0.41 | -1.86 ± 0.66 | -1.13 ± 0.084 | 2.802 ± 0.022 | – | – | – | – | – | – | – | – | – | –
9 | Cc1ccc(C(C)C)c(O)c1 [Thymol] | -0.805 ± 1.1 | -0.378 ± 0.63 | -1.08 ± 0.33 | -0.734 ± 0.81 | -1.25 ± 0.71 | -0.124 ± 0.09 | 0.381 ± 0.15 | 1.26 ± 0.35 | – | – | – | – | – | – | – | – | – | –
10 | O=C(O)Cc1cc(I)c(Oc2ccc(O)c(I)c2)c(I)c1 [Tiratricol] | 1.48 ± 0.13 | 1.09 ± 1.1 | 1.5 ± 1.1 | 0.13 ± 0.074 | 0.965 ± 0.74 | 0.402 ± 0.0063 | -0.312 ± 0.0079 | 21.5 ± 18 | – | – | – | – | – | – | – | – | – | –
11 | Cc1ccc(S(=O)(=O)NC(=O)NN2CCCCCC2)cc1 [Tolazamide] | -1.21 ± 0.35 | -1.21 ± 0.45 | -1.26 ± 0.85 | -1.16 ± 0.26 | -0.648 ± 0.45 | -0.378 ± 0.45 | -0.0919 ± 0.11 | 1.58 ± 1.5 | – | – | – | – | – | – | – | – | – | –
12 | Cc1ccc(N=C=O)cc1N=C=O [Toluene 2,4-diisocyanate] | -1.18 ± 0.59 | -1.26 ± 0.15 | -1.96 ± 0.45 | -1.55 ± 0.2 | -1.52 ± 0.076 | -0.759 ± 0.27 | 4.408 ± 0.042 | 11.5 ± 1.5 | – | – | – | – | – | – | – | – | – | –
13 | CCON=C(CC)C1C(=O)CC(c2c(C)cc(C)cc2C)CC1=O (centres undefined) [Tralkoxydim] | -1.61 ± 1.5 | -2.54 ± 0.76 | -2.84 ± 0.85 | -1.69 ± 0.41 | -3.18 ± 0.7 | -2.04 ± 0.19 | -1.88 ± 0.12 | -0.758 ± 0.81 | – | – | – | – | – | – | – | – | – | –
14 | NC(=O)Cn1c(=O)cc(CCN2CCN(c3nccc4sccc34)CC2)c2ccc(F)cc21 [Trelanserin] | -2.76 ± 0.59 | -2.72 ± 0.22 | -2.6 ± 0.45 | -2.79 ± 0.15 | -2.49 ± 0.9 | -3.23 ± 0.63 | -3.19 ± 0.31 | 4.59 ± 0.19 | – | – | – | – | – | – | – | – | – | –
15 | CC(C)N(C(=O)SCC(Cl)=C(Cl)Cl)C(C)C [Tri-allate] | -0.887 ± 0.62 | -0.771 ± 0.47 | -0.223 ± 0.71 | -0.601 ± 0.42 | -0.0707 ± 0.93 | -0.765 ± 0.52 | 1.13 ± 1.9 | 1.48 ± 0.1 | – | – | – | – | – | – | – | – | – | –
16 | CCCCCCCCOC(=O)c1ccc(C(=O)OCCCCCCCC)c(C(=O)OCCCCCCCC)c1 [Tri-n-octyl trimellitate] | – | -3.02 ± 1.1 | – | -1.71 ± 0.9 | -2.25 ± 0.55 | -2.21 ± 0.31 | -0.9931 ± 0.0017 | 1.54 ± 0.94 | -2.2 ± 0.31 | -2.45 ± 0.77 | – | – | – | – | – | – | – | –
17 | CC(=O)OCC(COC(C)=O)OC(C)=O [Triacetin] | -0.962 ± 0.12 | -3.22 ± 0.49 | -1.81 ± 0.69 | -1.13 ± 0.65 | -1.14 ± 0.036 | -0.506 ± 0.1 | 0.136 ± 0.76 | 0.128 ± 0.77 | – | – | – | – | – | – | – | – | – | –
18 | CC(C)(C)C(=O)C(Oc1ccc(Cl)cc1)n1cncn1 (centres undefined) [Triadimefon] | – | – | – | – | – | – | – | – | – | – | -0.92 ± 0.21 | -0.0413 ± 0.61 | -0.707 ± 0.2 | -0.437 ± 0.008 | 0.192 ± 0.53 | -0.0819 ± 0.64 | 0.1 ± 0.59 | 0.544 ± 0.74
